Peptide text beside a SMILES is read from it.
These compounds were tested on microbial enrichment cultures (assay: Ammonium production normalized by growth (NH4+/OD ratio) of microbial enrichment cultivated on individual carbon sources). Conditions: not given.
Format: cell-based

Row | Compound | Ammonium/OD ratio
1 | CC(=O)[O-].[K+] [Potassium acetate] | 0.98
2 | Cl.Cl.NCCCCN [Putrescine Dihydrochloride] | 1.20
3 | O.O=C([O-])C(=O)[O-].[K+].[K+] [Potassium oxalate monohydrate] | 1.13
4 | O.O.O=C([O-])CC(O)(CC(=O)[O-])C(=O)[O-].[Na+].[Na+].[Na+] [Trisodium citrate dihydrate] | 1.73
5 | L-tyrosine disodium salt | 0.87
6 | N=C(N)NCCC[C@H](N)C(=O)O [L-Arginine] | 1.79
7 | N[C@@H](Cc1c[nH]c2ccccc12)C(=O)O [L-Tryptophan] | 1.23
8 | NCCCC[C@H](N)C(=O)O [L-Lysine] | 1.02
9 | O.O=C([O-])C[C@H](O)C(=O)[O-].[Na+].[Na+] [L-Malic acid disodium salt monohydrate] | 1.43

Same assay, conditions: average of 8 independent cultures amended with varying concentrations of the carbon source; ammonium by colorimetric (Bertholet) assay, growth by OD 600

Row | Compound | Ammonium/OD ratio
10 | NC(=O)C[C@H](N)C(=O)O [L-Asparagine] | 1.16
11 | O[C@H]1[C@H](O)[C@@H](O)[C@H](O)[C@@H](O)[C@H]1O [m-Inositol] | 1.25
12 | O=C[O-].[Na+] [Sodium Formate] | 0.72
13 | Nc1ccn([C@@H]2O[C@H](CO)[C@@H](O)[C@H]2O)c(=O)n1 [Cytidine] | 1.64
14 | C[C@@H](N)C(=O)O [D-Alanine] | 1.08
15 | N[C@@H](CCC(=O)O)C(=O)[O-].O.[K+] [L-Glutamic acid monopotassium salt monohydrate] | 0.98
16 | Nc1ncnc2c1ncn2[C@@H]1O[C@H](CO)[C@@H](O)[C@H]1O [Adenosine] | 1.25
17 | N[C@@H](Cc1c[nH]cn1)C(=O)O [L-Histidine] | 1.10
18 | Cl.N[C@@H](CS)C(=O)O.O [L-Cysteine hydrochloride monohydrate] | 1.00
19 | O=C(O)CC(O)(CC(=O)O)C(=O)O [Citric Acid] | 1.65
20 | NC(=O)CC[C@H](N)C(=O)O [L-Glutamine] | 1.28
21 | NCC(=O)N[C@@H](CCC(=O)O)C(=O)O [Gly-Glu] (H-Gly-Glu-OH) | 1.12
22 | O=C[C@@H](O)[C@H](O)[C@H](O)CO [D-Arabinose] | 1.21
23 | O.O=C[C@H](O)[C@@H](O)[C@@H](O)[C@H](O)C(=O)O [D-Galacturonic Acid monohydrate] | 0.92
24 | N[C@@H](CC(=O)O)C(=O)O [L-Aspartic Acid] | 1.24
25 | CCC(=O)[O-].[Na+] [Sodium propionate] | 0.94
26 | O=C[C@H](O)[C@@H](O)[C@@H](O)CO [L-Arabinose] | 1.70
27 | O=C[C@H](O)[C@@H](O)[C@@H](O)[C@H](O)CO [D-Galactose] | 0.93
28 | OC[C@@H](O)[C@@H](O)[C@H](O)[C@H](O)CO [D-Mannitol] | 0.90
29 | O=CC[C@H](O)[C@H](O)CO [2-Deoxy-D-Ribose] | 1.00
30 | D-Salicin | 1.35
31 | O.O.O.O.O.OC[C@H]1O[C@H](OC[C@H]2O[C@H](O[C@]3(CO)O[C@H](CO)[C@@H](O)[C@@H]3O)[C@H](O)[C@@H](O)[C@@H]2O)[C@H](O)[C@@H](O)[C@H]1O [D-Raffinose pentahydrate] | 1.03
32 | O=C(O)[C@@H]1CCCN1 [L-Proline] | 0.94
33 | OC[C@H]1O[C@@H]2O[C@H]3[C@H](O)[C@@H](O)[C@@H](O[C@H]4[C@H](O)[C@@H](O)[C@@H](O[C@H]5[C@H](O)[C@@H](O)[C@@H](O[C@H]6[C@H](O)[C@@H](O)[C@@H](O[C@H]7[C@H](O)[C@@H](O)[C@@H](O[C@H]1[C@H](O)[C@H]2O)O[C@@H]7CO)O[C@@H]6CO)O[C@@H]5CO)O[C@@H]4CO)O[C@@H]3CO [a-Cyclodextrin] | 1.07
34 | OC[C@H]1O[C@H](O[C@H]2[C@H](O)[C@@H](O)[C@H](O)O[C@@H]2CO)[C@H](O)[C@@H](O)[C@@H]1O [D-Maltose monohydrate] | 0.94
35 | O=C[C@H](O)[C@@H](O)[C@H](O)CO [D-Xylose] | 1.06
36 | O=C[C@@H](O)[C@@H](O)[C@H](O)[C@H](O)CO [D-Mannose] | 0.96

Row | Compound | Ammonium/OD ratio
37 | Gelatin | 0.85
38 | O=C(CO)[C@@H](O)[C@@H](O)[C@H](O)CO [D-Tagatose] | 1.14
39 | CC[C@H](C)[C@H](N)C(=O)O [L-Isoleucine] | 1.13
40 | C=C(CC(=O)O)C(=O)O [Itaconic Acid] | 1.40
41 | C[C@@H](O)[C@H](N)C(=O)O [L-Threonine] | 1.35
42 | CC(C)C[C@H](N)C(=O)O [L-Leucine] | 1.07
43 | CCO [Ethanol] | 0.91
44 | NCC(=O)NC(CC(=O)O)C(=O)O (racemic) [Gly-DL-Asp] | 1.17
45 | CSCC[C@H](N)C(=O)O [L-Methionine] | 1.67
46 | O=c1ccn([C@@H]2O[C@H](CO)[C@@H](O)[C@H]2O)c(=O)[nH]1 [Uridine] | 0.96
47 | CCCC(=O)[O-].[Na+] [Sodium butyrate] | 1.04
48 | O=C[C@H](O)[C@@H](O)[C@H](O)[C@H](O)COP(=O)([O-])[O-].[Na+].[Na+] [D-Glucose-6-Phosphate sodium salt] | 0.99
49 | O=C(CO)[C@@H](O)[C@H](O)[C@@H](O)CO [L-Sorbose] | 1.90
50 | OC[C@H]1O[C@@](CO)(O[C@H]2O[C@H](CO)[C@@H](O)[C@H](O)[C@H]2O)[C@@H](O)[C@@H]1O [Sucrose] | 1.07
51 | Cc1cn([C@H]2C[C@H](O)[C@@H](CO)O2)c(=O)[nH]c1=O [Thymidine] | 1.06
52 | CCCCCCCC(=O)[O-].[Na+] [Sodium octanoate] | 1.21
53 | O.O=C([O-])CCC(=O)C(=O)[O-].[Na+].[Na+] [a-Ketoglutaric acid disodium salt hydrate] | 1.26
54 | OCC(O)CO [Glycerol] | 1.19
55 | O=C(O)CC(O)C(=O)O (racemic) [D,L-Malic Acid] | 1.41
56 | CC(=O)N[C@H]1C(O)O[C@H](CO)[C@@H](O)[C@@H]1O (stereo partly drawn) [N-Acetyl-D-Glucosamine] | 1.07
57 | OC[C@H]1O[C@@H](O[C@H]2[C@H](O)[C@@H](O)[C@H](O)O[C@@H]2CO)[C@H](O)[C@@H](O)[C@@H]1O [D-Cellobiose] | 1.14
58 | O=C([O-])[C@H](O)[C@@H](O)[C@H](O)[C@H](O)CO.[Na+] [D-Gluconic Acid sodium salt] | 1.19
59 | C[C@H](O)[C@H](O)[C@@H](O)[C@@H](O)C=O.O [L-Rhamnose monohydrate] | 1.09
60 | O.O.OC[C@H]1O[C@H](O[C@H]2O[C@H](CO)[C@@H](O)[C@H](O)[C@H]2O)[C@H](O)[C@@H](O)[C@@H]1O [D-Trehalose dihydrate] | 0.82
61 | OC[C@@H](O)[C@H](O)[C@@H](O)CO [Xylitol] | 1.13
62 | O=C[C@H](O)[C@H](O)[C@H](O)CO [D-Ribose] | 1.36
63 | O.O.O.O.O.O.O=C([O-])CCC(=O)[O-].[Na+].[Na+] [Sodium succinate dibasic hexahydrate] | 1.03

— patent US10961163B2, “Compositions and methods useful for enhancing the microbial conversion of nitrate into ammonium” (The Regents of the University of California, priority 2016, dated 2021)
